From PubChem BioAssay AID330 (DTP/NCI, 2004)
Several values for one entry are separate records, joined by “and”; a condition that tells them apart may be missing. Identical values can stand only once. Inconclusive results and toxic doses are left out. How the source made its calls: active means survival T/C of 150% or more; inactive means T/C below 125% in these data.

Test system: P388 leukemia ip, CD2F1 mice, survival T/C
Assay: NCI In Vivo Anticancer Drug Screen. Data for tumor model P388 Leukemia (intraperitoneal) in CD2F1 (CDF1) mice
Settings: endpoint: median survival time, higher = longer survival
In short: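 Mice carrying the transplanted tumor received test compound or vehicle. Survival was recorded in each group, and the value is the treated-group measurement divided by that of the vehicle-treated control group.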

[1] = dose: 50.0 mg/kg/injection, schedule: Q01DX009 (ip), vehicle: saline with Tween-80
[2] = dose: 100.0 mg/kg/injection, schedule: Q01DX009 (ip), vehicle: saline with Tween-80
[3] = dose: 60.0 mg/kg/injection, schedule: Q01DX005 (ip), vehicle: saline with Tween-80
[4] = dose: 120.0 mg/kg/injection, schedule: Q01DX005 (ip), vehicle: saline with Tween-80
[5] = dose: 50.0 mg/kg/injection, schedule: Q01DX005 (ip), vehicle: Klucel (hydroxypropylcellulose) (HPC)
[6] = dose: 100.0 mg/kg/injection, schedule: Q01DX005 (ip), vehicle: Klucel (hydroxypropylcellulose) (HPC)
[7] = dose: 200.0 mg/kg/injection, schedule: Q01DX005 (ip), vehicle: Klucel (hydroxypropylcellulose) (HPC)
[8] = dose: 240.0 mg/kg/injection, schedule: Q01DX005 (ip), vehicle: saline with Tween-80

Measured: T/C

C=C1CC2CCC1C2 (stereo not drawn)
inactive: dose: 25.0 mg/kg/injection, schedule: Q01DX009 (ip), vehicle: saline with Tween-80 100 % of control | dose: 25.0 mg/kg/injection, schedule: Q04DX003 (ip), vehicle: saline with Tween-80 104 % of control | [1] 100 % of control | dose: 50.0 mg/kg/injection, schedule: Q04DX003 (ip), vehicle: saline with Tween-80 104 % of control | [2] 100 % of control | dose: 100.0 mg/kg/injection, schedule: Q04DX003 (ip), vehicle: saline with Tween-80 100 % of control

N#CC(NCc1ccccc1)c1ccccc1 (stereo not drawn)
inactive: [3] 99 % of control | [4] 100 % of control

O=C1CNCC(=O)N1
inactive: dose: 50.0 mg/kg/injection, schedule: Q01DX005 (ip), vehicle: saline 110 % of control | dose: 100.0 mg/kg/injection, schedule: Q01DX005 (ip), vehicle: saline 99 % of control | dose: 200.0 mg/kg/injection, schedule: Q01DX005 (ip), vehicle: saline 100 % of control

CCOc1c(N=Nc2ccccc2C)c(C)nn1C(N)=S
inactive: dose: 60.0 mg/kg/injection, schedule: Q01DX005 (ip), vehicle: Klucel + Tween-80 100 % of control | dose: 120.0 mg/kg/injection, schedule: Q01DX005 (ip), vehicle: Klucel + Tween-80 97 % of control | dose: 240.0 mg/kg/injection, schedule: Q01DX005 (ip), vehicle: Klucel + Tween-80 100 % of control

O=C1c2ccccc2C(=O)C1(Br)c1ccccc1
inactive: dose: 100.0 mg/kg/injection, schedule: Q04DX002 (ip), vehicle: saline with Tween-80 99 % of control | dose: 200.0 mg/kg/injection, schedule: Q04DX002 (ip), vehicle: saline with Tween-80 101 % of control

COc1cc2c(c(OC)c1OC)-c1c(cc3c(c1OC)OCO3)C1OC2C(C)C1C (stereo not drawn) (tested in a mixture with another compound)
inactive: dose: 25.0 mg/kg/injection, schedule: Q01DX005 (ip), vehicle: Klucel (hydroxypropylcellulose) (HPC) 100 % of control | [5] 97 % of control | [6] 100 % of control and 101 % of control | [7] 103 % of control and 106 % of control | dose: 400.0 mg/kg/injection, schedule: Q01DX005 (ip), vehicle: Klucel (hydroxypropylcellulose) (HPC) 99 % of control

CCCNS(=O)(=O)c1ccccc1C(=O)NC1CCCCC1
inactive: [5] 103 % of control | [6] 93 % of control | [7] 94 % of control

CCOC(=O)c1cc2c(OC)c(OC)ccc2c2[nH]cc(C#N)c(=O)c12
inactive: dose: 12.5 mg/kg/injection, schedule: Q01DX009 (ip), vehicle: distilled water + Tween-80 100 % of control | dose: 25.0 mg/kg/injection, schedule: Q01DX009 (ip), vehicle: distilled water + Tween-80 94 % of control | dose: 50.0 mg/kg/injection, schedule: Q01DX009 (ip), vehicle: distilled water + Tween-80 93 % of control | dose: 100.0 mg/kg/injection, schedule: Q01DX009 (ip), vehicle: distilled water + Tween-80 90 % of control | dose: 200.0 mg/kg/injection, schedule: Q01DX009 (ip), vehicle: distilled water + Tween-80 86 % of control

COc1ncc[n+]([O-])n1
inactive: [1] 103 % of control | [2] 100 % of control and 108 % of control and 111 % of control | dose: 200.0 mg/kg/injection, schedule: Q01DX009 (ip), vehicle: saline with Tween-80 100 % of control and 102 % of control and 123 % of control | dose: 400.0 mg/kg/injection, schedule: Q01DX009 (ip), vehicle: saline with Tween-80 93 % of control

CCN(CC)CC.COC(=O)NC#N.[CH-]1CCCCC1.[CH-]1CCCCC1.[CH-]1CCCCC1.[Cl-].[Sn+4]
inactive: dose: 3.12 mg/kg/injection, schedule: Q01DX005 (ip), vehicle: saline with Tween-80 104 % of control | dose: 6.25 mg/kg/injection, schedule: Q01DX005 (ip), vehicle: saline with Tween-80 98 % of control

Cc1cccc(-n2c(=O)c3[nH]c4ccccc4sc=3c2=O)c1
inactive: [3] 104 % of control | [4] 107 % of control | [8] 92 % of control

N#CC(C#N)=CN1CCCCCC1
inactive: dose: 6.25 mg/kg/injection, schedule: Q04DX003 (ip), vehicle: saline with Tween-80 104 % of control | dose: 12.5 mg/kg/injection, schedule: Q04DX003 (ip), vehicle: saline with Tween-80 100 % of control

C(=C\c1cc2ccc(C3=NCCN3)cc2[nH]1)/c1ccc(C2=NCCN2)cc1
inactive: dose: 6.25 mg/kg/injection, schedule: Q04DX003 (ip), vehicle: saline 118 % of control

ClC(Cl)(Cl)Sn1cccn1
inactive: [1] 104 % of control | [2] 97 % of control

Nc1ccc2ccc3ccc(N)nc3c2n1
inactive: [3] 103 % of control | [4] 91 % of control

CC(/C=C/c1ccc(Cl)cc1)=N\NC(N)=O
inactive: [3] 94 % of control | [4] 99 % of control | [8] 99 % of control
